The values that follow come from patent US6166050A, “3,4-diamino-3-cyclobutene-1,2-dione derivatives which inhibit leukocyte adhesion mediated by VLA-4” (American Home Products Corporation, priority 1999, dated 2000).

The assay concerns the target T1, α4 β1 integrin (VLA-4) (Homo sapiens, UniProt P05556+P13612).
T1 construct: Jurkat cells (ATCC #TIB-153) which express high levels of α4 β1 integrin (VLA-4); host or cells: Jurkat cells
In words: Monovalent FACS Assay for α4 β1 Integrin/VCAM-1 Binding (inhibition of soluble VCAM-1 binding to Jurkat cells). How it is done:
The foregoing compounds were tested for VLA-4 binding activity using the following monvalent FACS assay. The IC50 for a compound reflects 50% receptor occupancy.
Monovalent FACS Assay for α4 β1 Integrin/VCAM-1 Binding
The VLA-4 binding activity of exemplary compounds was measured by measuring the inhibition of the interaction of soluble VCAM-1 with Jurkat cells (ATCC #TIB-153) which express high levels of α4 β1 integrin (VLA-4) using a modification of the fluorescence activated cell sorter (FACS) assay described by Yednock, et al., J. Biol. Chem., 1995, 270:28740. VCAM-1 interacts with the cell surface in an α4 β1 integrin-dependent fashion.
Jurkat cells were grown in RPMI 1640 supplemented with 10% fetal bovine serum, penicillin, streptomycin and glutamine as described by Yednock, supra.
Recombinant soluble VCAM-1 (rsVCAM-1) was produced in a baculovirus expression system as a chimeric fusion protein containing the seven immunoglobulin domains of VCAM-1 on the N-terminus and the human IgG1 heavy chain constant region on the C-terminus as described by Yednock, supra. Supernatant containing approximately 10 ug/ml rsVCAM-1 was collected after 72 hours and used in the assay without purification.
Jurkat cells (approximately 10^7 cells/ml) were treated with 1.5 mM MnCl2 and 5 μg/ml 15/7 for 30 minutes on ice to activate β1 integrin. Mn^+2 activates the receptor to enhance ligand binding, and 15/7 is a monoclonal antibody that recognizes an activated/ligand occupied conformation of α4 β1 integrin and locks the molecule into this conformation thereby stabilizing the VCAM-1/α4 β1 integrin interaction. Yednock, et al., supra. Antibodies similar to 15/7 have been prepared and may be used in this assay. For example, see, Luque, et al., 1996, J. Bio. Chem., 271: 11067.
Aliquots of 25 μl cells were incubated for 30 minutes at room temperature with compounds using a standard 5-point serial dilution. 15 μl of rsVCAM-Fc-containing baculovirus supernatant was added to the cells and incubated for 30 minutes on ice as described in Yednock, et al., supra.
Cells were washed twice and resuspended in 100 μl of a 1:100 dilution of FITC-conjugated goat anti-human IgG to detect the human Ig-VCAM-1 construct diluted in assay media containing 2.5% mouse serum to block potential cross-reactivity with cell surface bound 15/7. Cells were incubated on ice for 30 minutes in the dark. Cells were washed twice and analyzed with a standard FACS analysis as described in Yednock, et al., supra. on a FACScan flow cytometer (Becton Dickinson, Mountain View, Calif.).

Where [1] appears, read: Jurkat cells, rsVCAM-1, IC50 reflects 50% receptor occupancy, unit μM, read-out: IC50 (FACS).
Setting [2] is: Jurkat cells, rsVCAM-1, IC50 reflects 50% receptor occupancy, unit nM, read-out: IC50 (FACS).

A word on the IC50: it is the point on the concentration scale where inhibition reaches its midpoint.

Where two headings read alike, the source gives them in different places.

T1 sequence (P13612 34-1032): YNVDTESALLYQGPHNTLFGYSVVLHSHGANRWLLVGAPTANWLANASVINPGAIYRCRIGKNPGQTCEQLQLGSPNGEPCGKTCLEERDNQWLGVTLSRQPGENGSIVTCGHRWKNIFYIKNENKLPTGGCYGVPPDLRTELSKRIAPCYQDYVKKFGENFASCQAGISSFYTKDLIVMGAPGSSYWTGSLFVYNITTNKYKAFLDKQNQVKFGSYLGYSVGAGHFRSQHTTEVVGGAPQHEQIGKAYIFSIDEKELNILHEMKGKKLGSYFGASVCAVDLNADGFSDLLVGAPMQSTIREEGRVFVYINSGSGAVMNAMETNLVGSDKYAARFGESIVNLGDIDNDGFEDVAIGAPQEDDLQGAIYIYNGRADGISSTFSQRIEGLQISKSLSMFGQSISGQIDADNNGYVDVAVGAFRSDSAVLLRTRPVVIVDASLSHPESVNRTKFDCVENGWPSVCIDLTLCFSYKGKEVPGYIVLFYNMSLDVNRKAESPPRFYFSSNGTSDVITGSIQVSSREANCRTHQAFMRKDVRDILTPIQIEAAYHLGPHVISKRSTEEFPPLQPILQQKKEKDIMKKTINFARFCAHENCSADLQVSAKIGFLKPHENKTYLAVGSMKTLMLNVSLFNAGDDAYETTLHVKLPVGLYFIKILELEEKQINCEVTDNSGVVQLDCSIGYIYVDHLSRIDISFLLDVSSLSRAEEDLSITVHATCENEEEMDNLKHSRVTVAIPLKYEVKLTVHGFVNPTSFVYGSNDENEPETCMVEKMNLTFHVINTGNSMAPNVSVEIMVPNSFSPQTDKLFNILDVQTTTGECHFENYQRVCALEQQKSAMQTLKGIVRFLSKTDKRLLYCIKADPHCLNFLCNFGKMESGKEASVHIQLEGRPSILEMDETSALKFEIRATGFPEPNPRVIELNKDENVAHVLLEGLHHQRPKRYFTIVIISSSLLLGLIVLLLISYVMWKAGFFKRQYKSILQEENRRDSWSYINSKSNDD
T1 sequence (P05556 21-798): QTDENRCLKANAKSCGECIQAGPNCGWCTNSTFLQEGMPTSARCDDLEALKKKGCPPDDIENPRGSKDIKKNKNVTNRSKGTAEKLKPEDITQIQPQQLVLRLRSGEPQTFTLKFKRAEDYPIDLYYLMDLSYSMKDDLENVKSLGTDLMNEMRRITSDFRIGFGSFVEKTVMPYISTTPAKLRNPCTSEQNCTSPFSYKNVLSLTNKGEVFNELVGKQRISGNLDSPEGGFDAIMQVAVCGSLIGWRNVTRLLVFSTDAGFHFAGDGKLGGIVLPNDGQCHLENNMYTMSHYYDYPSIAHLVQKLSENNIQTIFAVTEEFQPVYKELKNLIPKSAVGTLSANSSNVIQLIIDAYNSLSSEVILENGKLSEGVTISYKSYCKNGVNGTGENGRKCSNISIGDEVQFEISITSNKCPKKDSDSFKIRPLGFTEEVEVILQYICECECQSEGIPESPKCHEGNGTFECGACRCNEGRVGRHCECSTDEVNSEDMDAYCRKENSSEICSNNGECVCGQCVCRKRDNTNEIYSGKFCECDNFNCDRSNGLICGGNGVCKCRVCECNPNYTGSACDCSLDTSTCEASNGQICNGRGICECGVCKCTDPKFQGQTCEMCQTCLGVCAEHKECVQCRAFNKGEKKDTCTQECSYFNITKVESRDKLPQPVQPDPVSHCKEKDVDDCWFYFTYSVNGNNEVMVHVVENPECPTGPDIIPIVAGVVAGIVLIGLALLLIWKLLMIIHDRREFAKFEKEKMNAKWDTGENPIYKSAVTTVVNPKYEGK

Consider `CCCCCCN(Cc1ccc(N(C)C)cc1)c1c(N[C@@H](Cc2ccccc2)C(=O)O)c(=O)c1=O` [Example 19, (S)-2-{2-[(4-Dimethylamino-benzyl)-hexyl-amino]-3,4-dioxo-cyclobut-1-enylamino}-3-phenyl-propionic acid], for which the IC50 under setting [1] was determined as 13 µM.
On to `CN(CCc1ccncc1)c1c(N[C@@H](Cc2ccc(NC(=O)c3ccncc3)cc2)C(=O)O)c(=O)c1=O` [Example 35, N-[2-[Methyl[2-(4-pyridinyl)ethyl]amino]-3,4-dioxo-1-cyclobuten-1yl]-4-[(4-pyridinylcarbonyl)amino]-L-phenylalanine], for which the concentration for half-maximal inhibition (IC50) under setting [2] came to 0.015 µM.
For `CCCCCCN(Cc1ccc2ccccc2c1)c1c(N[C@@H](Cc2ccccc2)C(=O)O)c(=O)c1=O` [Example 17, (S)-2-[2-(Hexyl-naphthalen-2-ylmethyl-amino)-3,4-dioxo-cyclobut-1-enylamino]-3-phenyl-propionic acid], the IC50 under setting [1] was 36 µM.
Regarding `CN1CCN(C(=O)Oc2ccc(C[C@H](Nc3c(N(C)CCc4ccncc4)c(=O)c3=O)C(=O)O)cc2)CC1` [Example 68, (2S)-3-[4-(4-methylpiperazinyl)carbamoyloxy-phenyl)-2-{2-[methyl-(2-pyridin-4-yl-ethyl)-amino]-3,4-dioxo-cyclobut-1-enylamino}-propionic acid], the half-inhibitory concentration (IC50) came to 0.0013 µM.
Regarding `CCCCCCN(CCCCCC)c1c(N[C@@H](Cc2cn(Cc3ccccc3)cn2)C(=O)O)c(=O)c1=O` [Example 29, (S)-3-(1-Benzyl-1H-imidazol-4-yl)-2-(2-dihexylamino-3,4-dioxo-cyclobut-1-enylamino)-propionic acid], under setting [2], the IC50 is 0.631 µM.
On to `O=C(O)[C@H](Cc1ccccc1)Nc1c(NC(c2ccccc2)c2ccccc2)c(=O)c1=O` [Example 5, [2-(benzhydrylamino)-3,4-dioxo-cyclobut-1-enyl]-L-phenylalanine], for which the IC50 under setting [1] was determined as 101 µM.
For the compound `CCCCCCN(CCCCCC)c1c(N[C@@H](Cc2ccc(NC(=O)C3CCN(C(=O)OCc4ccccc4)CC3)cc2)C(=O)O)c(=O)c1=O` [Example 53], the IC50 under setting [2] came out at 0.071 µM.
With `CCCCCCN(CCCCCC)c1c(N[C@@H](Cc2ccccc2)C(=O)O)c(=O)c1=O` [Example 15, (S)-2-(2-Dihexylamino-3,4-dioxo-cyclobut-1-enylamino)-3-phenyl-propionic acid], under setting [1], the IC50 amounted to 1.5 µM.
As for `CCCCCCN(Cc1ccccc1)c1c(N[C@@H](Cc2ccccc2)C(=O)O)c(=O)c1=O` [Example 11, [2-(Benzyl-hexyl-amino)-3,4-dioxo-cyclobut-1-enyl]-L-phenylalanine], under setting [1], the IC50 was found to be 4.4 µM.
For the compound `CN(C)C(=O)Oc1ccc(C[C@H](Nc2c(N(C)Cc3cccnc3)c(=O)c2=O)C(=O)O)cc1` [Example 61, (2S)-3-(4-Dimethylcarbamoyloxy-phenyl)-2-[2-(methyl-pyridin-3-ylmethyl-amino)-3,4-dioxo-cyclobut-1-enylamino]-propionic acid], the IC50 under setting [2] is 0.0083 µM.
Still for that read-out and setting: with `CCCCCCN(CCCCCC)c1c(N[C@@H](Cc2ccc(NC(=O)c3ccncc3)cc2)C(=O)O)c(=O)c1=O` [Example 39, N-[2-(Dihexylamino)-3,4-dioxo-1-cyclobuten-1-yl]-4-[(4-pyridinylcarbonyl)amino]-L-phenylalanine] the figure was 0.0013 µM; with `CCCCCCN(CCCCCC)c1c(N[C@@H](Cc2ccc(NC(=O)c3ccccc3)cc2)C(=O)O)c(=O)c1=O` [Example 26, (S)-3-(4-Benzoylamino-phenyl)-2-(2-dihexylamino-3,4-dioxo-cyclobut-1-enylamino)-propionic acid], 0.15 µM.
`O=C(O)[C@H](Cc1ccccc1)Nc1c(NCc2cccnc2)c(=O)c1=O` [Example 9, {3,4-Dioxo-2-[(pyridin-3-ylmethyl)-amino]-cyclobut-1-enyl}-L-phenylalanine]: the IC50 under setting [1] came to 116 µM.
As for `CN(CCc1ccccc1)c1c(N[C@@H](Cc2ccc(NC(=O)c3ccncc3)cc2)C(=O)O)c(=O)c1=O` [Example 37, N-[2-[Methyl(2-phenylethyl)amino]-3,4-dioxo-1-cyclobuten-1-yl]-4-[(4-pyridinylcarbonyl)amino]-L-phenylalanine], the IC50 under setting [2] came to 0.0022 µM.
With `CN(CCc1ccncc1)c1c(N[C@@H](Cc2ccccc2)C(=O)O)c(=O)c1=O` [Example 50, N-{2-[Methyl-(2-pyridin-4-yl-ethyl)-amino]-3,4-dioxo-cyclobut-1-enyl}-L-phenylalanine], the IC50 under setting [1] came to 9 µM.
